{
  "source": "patent US20240342111A1",
  "about": "“ISOMER-SPECIFIC NEUROPROTECTIVE EFFECT OF NATURAL RESERVATROL” (priority 2021, published 2024)",
  "key": {"PARP1 [1]": {"system": "PARP1", "experiment": "Auto-PARylation of PARP1 after siRNA knockdown of TyrRS", "format": "cell-based, rat", "settings": "15 minutes"}, "TyrRS": {"target": "T1, TyrRS (Rattus norvegicus, UniProt Q4KM49)", "T1 construct": "Primary cortical neuron cultures were obtained from E18 Sprague Dawley rats' cortices; endogenous in cells; host or cells: rat primary cortical neurons (E18 Sprague Dawley)", "T1 sequence (Q4KM49 1-528)": "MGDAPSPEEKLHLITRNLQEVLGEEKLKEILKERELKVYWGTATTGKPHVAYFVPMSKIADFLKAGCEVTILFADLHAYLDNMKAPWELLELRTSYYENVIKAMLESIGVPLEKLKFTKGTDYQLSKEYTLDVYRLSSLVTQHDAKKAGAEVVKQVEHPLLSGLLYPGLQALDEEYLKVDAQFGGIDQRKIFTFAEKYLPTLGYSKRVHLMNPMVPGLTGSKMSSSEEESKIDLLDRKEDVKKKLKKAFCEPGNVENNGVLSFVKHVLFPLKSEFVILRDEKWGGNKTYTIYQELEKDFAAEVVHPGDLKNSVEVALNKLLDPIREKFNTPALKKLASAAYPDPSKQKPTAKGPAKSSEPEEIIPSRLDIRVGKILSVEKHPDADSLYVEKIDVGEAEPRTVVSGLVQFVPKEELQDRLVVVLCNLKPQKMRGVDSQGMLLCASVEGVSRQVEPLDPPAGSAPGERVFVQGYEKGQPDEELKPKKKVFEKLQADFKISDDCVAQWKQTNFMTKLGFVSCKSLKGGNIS", "experiment": "Immunostaining of neuronal TyrRS, RSV alone or in combination with Aβ", "format": "cell-based", "settings": "16 hours; for TyrRS protein levels: alone, 50μ; for Aβ-mediated downregulation of TyrRS: co-treatment 50μ with Aβ 50 nM"}, "HPF1": {"system": "HPF1", "experiment": "Immunoblot for HPF1 protein", "format": "cell-based, rat", "settings": "high dose 25 μM, up to 16 hr, time-dependent", "excerpt": "(§1) Ac-K56-H3 is a marker of genomic stability, see Driscoll, R., Hudson, A. & Jackson, S. P. Yeast Rtt109 promotes genome stability by acetylating histone H3 on lysine 56. Science 315, 649-652, doi:10.1126/science.1135862 (2007), and DNA damage, see Tjeertes, J. V., Miller, K. M. & Jackson, S. P. Screen for DNA-damage-responsive histone modifications identifies H3K9Ac and H3K56Ac in human cells. EMBO J 28, 1878-1889, doi:10.1038/emboj.2009.119 (2009), and inhibition of PARP1 causes the downregulation of RAD51, see Hegan, D. C. et al. Inhibition of poly(ADP-ribose) polymerase down-regulates BRCA1 and RAD51 in a pathway mediated by E2F4 and p130. […] The western blot images of the protein levels of HPF1 was quantified using ImageJ.\n(§2) Cultured neurons (DIV 9-10) were washed once with cold 1×PBS and lysed in cell lysis buffer (20 mM Tris-HCl (pH 7.5), 150 mM NaCl, 1 mM Na2EDTA, 1 mM EGTA, 1% Triton, 2.5 mM sodium pyrophosphate, 1 mM beta-glycerophosphate, 1 mM Na3VO4, 1 μg/ml leupeptin supplemented with protease inhibitor). […] Lysates were quantified using Bio-Rad Protein Assay, and an equal amount of protein was loaded onto a 4 to 12% gradient gel (NuPAGE-Invitrogen). […] Quantification for the western blots was done using ImageJ (Version 1.53c)."}, "Ligase IV": {"system": "Ligase IV", "experiment": "Immunoblot for DNA repair protein Ligase IV", "format": "cell-based, rat", "settings": "5-50 μM, 4 hours", "excerpt": "as §1, §2"}, "PARP1 [2]": {"system": "PARP1", "experiment": "Immunoblot of chromatin fraction for PARP1 and PAR", "format": "cell-based, rat", "settings": "50 μM, 1 hour"}, "XRCC1": {"system": "XRCC1", "experiment": "Immunoblot for DNA repair protein XRCC1", "format": "cell-based, rat", "settings": "5-50 μM, 4 hours", "excerpt": "as §1, §2"}},
  "data": [
    {"molecule": "Oc1ccc(/C=C/c2cc(O)cc(O)c2)cc1", "note": "[trans-RSV, trans-resveratrol]", "values": [
      {"measurement": "auto-PARylation of PARP1 after knockdown of TyrRS", "setting": "PARP1 [1]; trans-RSV 5 μM", "result": "blunted after knockdown of TyrRS"},
      {"measurement": "TyrRS protein levels", "setting": "TyrRS", "result": "downregulation"},
      {"measurement": "Aβ-mediated downregulation of TyrRS", "setting": "TyrRS", "result": "exacerbated the downregulation of TyrRS"},
      {"measurement": "HPF1 protein levels", "setting": "HPF1", "result": "downregulated the protein levels of the histone poly-ADP-ribosylation factor 1 (HPF1)"},
      {"measurement": "ligase IV protein levels", "setting": "Ligase IV", "result": "downregulated the protein levels"},
      {"measurement": "PARP1 and PAR in the chromatin fraction", "setting": "PARP1 [2]", "result": "enhanced the association (‘trapping’) of PARP1 with chromatin"},
      {"measurement": "XRCC1 protein levels", "setting": "XRCC1", "result": "downregulated the protein levels"}
    ]},
    {"molecule": "Oc1ccc(/C=C\\c2cc(O)cc(O)c2)cc1", "note": "[cis-RSV, cis-resveratrol]", "values": [
      {"measurement": "auto-PARylation of PARP1 after knockdown of TyrRS", "setting": "PARP1 [1]; cis-RSV 25 μM", "result": "blunted after knockdown of TyrRS"},
      {"measurement": "TyrRS protein levels", "setting": "TyrRS", "result": "upregulation of the TyrRS protein levels"},
      {"measurement": "Aβ-mediated downregulation of TyrRS", "setting": "TyrRS", "result": "protected against Aβ-mediated downregulation of TyrRS"},
      {"measurement": "ligase IV protein levels", "setting": "Ligase IV", "result": "upregulated them"},
      {"measurement": "PARP1 and PAR in the chromatin fraction", "setting": "PARP1 [2]", "result": "downregulated PARP1 (170 kDa) and PAR modification in the chromatin fraction"},
      {"measurement": "XRCC1 protein levels", "setting": "XRCC1", "result": "upregulated them"}
    ]}
  ]
}
